The term IC50 denotes the point on the concentration scale where inhibition reaches its midpoint. Low readings indicate inhibition by little substance, high ones a need for much substance.

Each structure is given as a SMILES string.

The experiment has as its target T1, cytoplasmic kinase domain of human Flt-3 (GST-Flt-3) (Homo sapiens, UniProt P36888).
T1 construct: expressing the amino acid region amino acids 563-993 of the cytoplasmic kinase domain of human Flt-3; made in house; host or cells: Sf9 insect cells (baculovirus, pFbacG01 donor vector)
T1 sequence (P36888 563-993): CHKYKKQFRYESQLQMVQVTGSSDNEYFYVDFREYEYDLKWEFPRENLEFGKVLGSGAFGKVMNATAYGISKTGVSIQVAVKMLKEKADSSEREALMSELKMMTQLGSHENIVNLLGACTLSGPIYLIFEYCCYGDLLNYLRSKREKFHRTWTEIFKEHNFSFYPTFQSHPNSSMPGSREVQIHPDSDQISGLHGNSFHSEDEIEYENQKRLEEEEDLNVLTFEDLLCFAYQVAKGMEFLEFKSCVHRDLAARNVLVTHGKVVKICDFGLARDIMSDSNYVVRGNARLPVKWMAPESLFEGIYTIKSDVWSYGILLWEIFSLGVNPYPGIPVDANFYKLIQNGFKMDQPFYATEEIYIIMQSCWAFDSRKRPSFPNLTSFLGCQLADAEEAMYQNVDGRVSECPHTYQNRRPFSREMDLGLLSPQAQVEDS
The experiment in a line: Inhibition of the protein tyrosine kinase activity of Flt-3 (GST-Flt-3, 33P incorporation into poly(Glu, Tyr)). It counts as biochemical. The note with it: purified GST-Flt-3, 8.0 μM ATP, poly(Glu, Tyr) 4:1, 20 min at ambient temperature. The text has this: The baculovirus donor vector pFbacG01 (GIBCO) is used to generate a recombinant baculovirus expressing the amino acid region amino acids 563-993 of the cytoplasmic kinase domain of human Flt-3. The coding sequence for the cytoplasmic domain of Flt-3 is amplified by PCR from human c-DNA libraries (Clontech). The amplified DNA fragments and the pFbacG01 vector are made compatible for ligation by digestion with BamH1 and HindIII. Ligation of these DNA fragments results in the baculovirus donor plasmid Flt-3 (1.1). The production of the viruses, the expression of proteins in Sf9 cells and the purification of the GST-fused proteins are performed as follows: Production of virus: Transfer vector (pFbacG01-Flt-3) containing the Flt-3 kinase domain is transfected into the DH10Bac cell line (GIBCO) and the transfected cells are plated on selective agar plates. Colonies without insertion of the fusion sequence into the viral genome (carried by the bacteria) are blue. Single white colonies are picked and viral DNA (bacmid) is isolated from the bacteria by standard plasmid purification procedures. Sf9 or Sf21 cells (American Type Culture Collection) are then transfected in flasks with the viral DNA using Cellfectin reagent. Protein expression in Sf9 cells: Virus containing media is collected from the transfected cell culture and used for infection to increase its titre. Virus containing media obtained after two rounds of infection is used for large-scale protein expression. For large-scale protein expression 100 cm^2 round tissue culture plates are seeded with 5×10^7 cells/plate and infected with 1 mL of virus-containing media (approx. 5 MOIs). After 3 days the cells are scraped off the plate and centrifuged at 500 rpm for 5 min. Cell pellets from 10-20, 100 cm^2 plates are resuspended in 50 mL of ice-cold lysis buffer (25 mM Tris-HCl, pH 7.5, 2 mM EDTA, 1% NP-40, 1 mM DTT, 1 mM PMSF). The cells are stirred on ice for 15 min and then centrifuged at 5000 rpms for 20 min. Purification of GST-tagged proteins: The centrifuged cell lysate is loaded onto a 2 mL glutathione-sepharose column (Pharmacia) and washed three times with 10 mL of 25 mM Tris-HCl, pH 7.5, 2 mM EDTA, 1 mM DTT, 200 mM NaCl. The GST-tagged protein is then eluted by 10 applications (1 mL each) of 25 mM Tris-HCl, pH 7.5, 10 mM reduced-glutathione, 100 mM NaCl, 1 mM DTT, 10% Glycerol and stored at −70° C. Measurement of enzyme activity: Tyrosine protein kinase assays with purified GST-Flt-3 are carried out in a final volume of 30 μL containing 200-1800 ng of enzyme protein (depending on the specific activity), 20 mM Tris-HCl, pH 7.6, 3 mM MnCl2, 3 mM MgCl2, 1 mM DTT, 10 μM Na3VO4, 3 μg/mL poly(Glu, Tyr) 4:1, 1% DMSO, 8.0 μM ATP and 0.1 μCi [γ^33 P] ATP. The activity is assayed in the presence or absence of inhibitors, by measuring the incorporation of ^33P from [γ^33P] ATP into the poly(Glu, Tyr) substrate. The assay (30 μL) is carried out in 96-well plates at ambient temperature for 20 min and terminated by the addition of 20 μL of 125 mM EDTA. Subsequently, 40 μL of the reaction mixture is transferred onto Immobilon-PVDF membrane (Millipore, Bedford, Mass., USA) previously soaked for 5 min with methanol, rinsed with water, then soaked for 5 min with 0.5% H3PO4 and mounted on vacuum manifold with disconnected vacuum source. After spotting all samples, vacuum is connected and each well rinsed with 200 μL 0.5% H3PO4. Membranes are removed and washed 4× on a shaker with 1.0% H3PO4, once with ethanol. Membranes are counted after drying at ambient temperature, mounting in Packard TopCount 96-well frame, and addition of 10 μL/well of Microscint™ (Packard). IC50 values are calculated by linear regression analysis of the percentage inhibition of each compound in duplicate, at four concentrations (usually 0.01, 0.1, 1 and 10 μM). One unit of protein kinase activity is defined as 1 nmole of ^33P transferred from [γ^33P] ATP to the substrate protein per minute per mg of protein at 37° C. […]
`c1ccc(-c2cnc(Nc3ccc(OCCN4CCCC4)cc3)s2)cc1` [Example 1, (5-Phenyl-thiazol-2-yl)-[4-(2-pyrrolidin-1-yl-ethoxy)-phenyl]-amine] displayed an IC50 of 41 nM.
In the case of `COc1ccc(-c2cnc(Nc3ccc(N4CCN(C)CC4)cc3)s2)cc1` [Example 5, [5-(4-Methoxy-phenyl)-thiazol-2-yl]-[4-(4-methyl-piperazin-1-yl)-phenyl]-amine] it was 24 nM; in that of `Oc1ccc(-c2cnc(Nc3ccc(OCCN4CCCC4)cc3)s2)cc1` [Example 7, 4-{2-[4-(2-Pyrrolidin-1-yl-ethoxy)-phenylamino]-thiazol-5-yl}-phenol], 35 nM.
With `Oc1ccc(Nc2ncc(-c3ccsc3)s2)cc1` [Example 12, 4-(5-Thiophen-3-yl-thiazol-2-yl-amino)-phenol], the IC50 is 34 nM.
In the case of `c1cc(-c2cnc(Nc3ccc(OCCN4CCCCC4)cc3)s2)cs1` [Example 16, [4-(2-Piperidin-1-yl-ethoxy)-phenyl]-(5-thiophen-3-yl-thiazol-2-yl)-amine] it was 22 nM.
As for `c1cc(-c2cc(Nc3ccc(OCCN4CCCC4)cc3)n[nH]2)cs1` [Example 34, [4-(2-Pyrrolidin-1-yl-ethoxy)-phenyl]-(5-thiophen-3-yl-1H-pyrazol-3-yl)-amine], the figure is 82 nM; as for `CCN(CC)CCOc1ccc(Nc2cc(-c3ccsc3)[nH]n2)cc1` [Example 37, [4-(2-Diethylamino-ethoxy)-phenyl]-(5-thiophen-3-yl-1H-pyrazol-3-yl)-amine], 31 nM.

For the origin of these results see patent US7795288B2, “Thiazole and pyrazole derivatives as Flt-3 kinase inhibitors” (Novartis AG, priority 2003, dated 2010).
